Experimental findings from patent publication US20160366882A1, “AGROCHEMICAL COMPOSITIONS FOR INDUCING ABIOTIC STRESS TOLERANCE” (VIB VZW, priority 2012, published 2016) are described below.

SMILES strings stand for the structures.

The subject of assay [1] is Oilseed rape of the variety Alessio. The assay is described as follows: salt tolerance in oilseed rape (vitality index after salt water irrigation). Type of assay: in vivo. The settings on record: 24 h later 50 ml salt water per pot, 80 grams of NaCl per liter, assessed 3 and 4 days after treatment. The protocol:
Oilseed rape of the variety Alessio was sown in small pots (8×8×8 cm) filled with universal peat at 4 grains per pot. The plants were grown in a non-heated greenhouse until BBCH 13 (3 unfolded leaves). At that stage the number of plants per pot was reduced to 2, and the plants were either or not treated with dichloroprop-P (Duplosan DP, 600 g/l dichloroprop-P, Nufarm UK Limited), using a Birchmeier hand sprayer with an operating pressure of 2 bar. Per object 8 pots were treated. The 8 pots were put in line, 5 cm apart, and were sprayed overhead within 6 seconds. Two different concentrations of dichloroprop-P were applied: 4 mg/l or 8 mg/l. 24 hours after treatment, the plants were irrigated with salt water, giving 50 ml of water per pot at a concentration of 80 grams of NaCl per liter of water. The following days the plants were assessed visually for salt damage. Plants were divided into 3 categories: high vitality (=2), only moderate vitality (=1) or low vitality (=0), based on which a vitality index was calculated, ranging from 0 (low vitality) to 100 (high vitality).

The subject of assay [2] is Maize of the variety Maibi. The assay is described as follows: frost tolerance in maize (crop condition index after frost regime). Type of assay: in vivo. The settings on record: 24 h later 6 hours at −2° C., assessed 2 days after treatment. How it is done: Maize of the variety Maibi was sown in small pots (8×8×8 cm) filled with universal peat at 4 grains per pot. The plants were grown in a non-heated greenhouse until BBCH 13 (3 unfolded leaves). At that stage plants were either or not treated with dichloroprop-P (Duplosan DP, 600 g/l dichloroprop-P, Nufarm UK Limited), using a Birchmeier hand sprayer with an operating pressure of 2 bar. Per object 10 pots were treated. The 10 pots were put in line, 5 cm apart, and were sprayed overhead within 6 seconds. Four different concentrations of dichloroprop-P were applied: 4 mg/l, 8 mg/1, 12 mg/l or 16 mg/l. 24 hours after treatment, the plants were transferred in to a refrigerator that was set at −2° C. for 6 hours. Afterwards the plants were transferred back to the greenhouse. The day after the cold treatment (so 2 days after application of dichloroprop-P) the plants were assessed visually for frost damage. Plants were divided into 3 categories: Good crop condition (=2), only moderate crop condition (=1) or bad crop condition (=0), based on which a crop condition index was calculated, ranging from 0 (bad crop condition) to 100 (good crop condition).

Assay [3] has as its system catalase-2 mutant A. thaliana plantlets (cat2-2). The experiment in a line: agar assay: rescue of cell death of catalase-2 mutants under photorespiratory conditions (Restricted Gas exchange Constant Light; RGCL). Type of assay: in vivo, Arabidopsis thaliana. The settings on record: grown under photorespiratory conditions. How it is done:
FIG. 2: effect of 5 μM of compound 4 on the rescue of cell death of the catalase-2 mutant A. thaliana plantlets when grown under photorespiratory conditions. Photorespiratory conditions are, for example, as herein used, restricted-gas-exchange-constant light conditions. […] Photorespiration (Rp) is a major source of detrimental effects and yield losses in crop plants. Catalase is one of the crucial proteins in the Rp process since it provides the dissipation sink of photosynthetic excitation overload in the role of Rp as a photo-protective mechanism. Secondly, and as part of the same process, catalase provides effective defense against excessive hydrogen peroxide levels, without requiring additional energy from other sources. Catalase knock-out mutant plants thus provide an excellent tool to study the process of Rp (see Vandenabeele S et al., (2003) PNAS 100, 26, 16113-16118). In the disclosure, we developed a high-throughput screening assay by using a catalase-2 deficient plant. […] Fv/Fm is presented as a ratio of variable fluorescence (Fv) over the maximum fluorescence value (Fm). […] On a regular basis Fv/Fm was monitored for all wells, using a Walz Maxi PAM imager. Several days after transfer to constant light the individual wells were visually scored for cell death. […] Three persons scored independently, and only a consensus of ⅔ scores were maintained as positive hits. […]

Take `CC(Oc1ccc(Cl)cc1Cl)C(=O)O` (stereo not shown) [dichloroprop-P]: the “vitality in salt stress conditions (salt stress tolerance)” value in assay [1] (spray 4 mg/l at BBCH 13) and in assay [1] (spray 8 mg/l at BBCH 13) was “comparable increase in salt stress tolerance” throughout. Moreover, the “crop condition after frost (frost tolerance)” value in assay [2] (spray 4 mg/l at BBCH 13) is given as “better crop condition after frost”; in assay [2] (spray 12 mg/l at BBCH 13), “negative effect on frost tolerance”; in assay [2] (spray 16 mg/l at BBCH 13) it was “negative effect on frost tolerance”.
On to `CCCCC(CC)COC(=O)C(C)Oc1ccc(Cl)cc1Cl` (stereo not shown) [variant 1], for which, in assay [3] (100 nM), the “rescue of cell death of the cat2-2 mutant” value is recorded as “rescues cell death”.
Consider `Cc1ccnc(NC(=O)COc2ccc(Cl)cc2Cl)c1` [variant 2], for which the “rescue of cell death of the cat2-2 mutant” value in assay [3] (50 nM) is given as “rescues cell death”.
